One assay deals with human FGFR-1 (Homo sapiens, UniProt P11362). Nature of the assay: FGFR-1 high ATP kinase assay (TR-FRET). Format: biochemical. As to conditions: 2 mM ATP; 15 min pre-incubation with enzyme; compounds of the invention.
A further assay has as its target human FGFR-3 (Homo sapiens (Human), UniProt P22607). Description: FGFR-3 kinase assay (TR-FRET). Format: biochemical. As to conditions: 10 μM ATP. On the technique in general: In TR-FRET formats the signal depends on donor and acceptor labels being close together.
Where [1] appears, read: 15 min pre-incubation with enzyme, compounds of the invention.
Where [2] appears, read: comparative prior art compounds, labels are Example No. in WO 2007/061737.

These results are taken from patent US9206184B2, “Disubstituted benzothienyl-pyrrolotriazines and uses thereof” (BAYER INTELLECTUAL PROPERTY GmbH, priority 2011, dated 2015).

Structures are written as SMILES. Structures can show the parent of a compound that is named as a salt.

human FGFR-3, sequence (P22607 397-806): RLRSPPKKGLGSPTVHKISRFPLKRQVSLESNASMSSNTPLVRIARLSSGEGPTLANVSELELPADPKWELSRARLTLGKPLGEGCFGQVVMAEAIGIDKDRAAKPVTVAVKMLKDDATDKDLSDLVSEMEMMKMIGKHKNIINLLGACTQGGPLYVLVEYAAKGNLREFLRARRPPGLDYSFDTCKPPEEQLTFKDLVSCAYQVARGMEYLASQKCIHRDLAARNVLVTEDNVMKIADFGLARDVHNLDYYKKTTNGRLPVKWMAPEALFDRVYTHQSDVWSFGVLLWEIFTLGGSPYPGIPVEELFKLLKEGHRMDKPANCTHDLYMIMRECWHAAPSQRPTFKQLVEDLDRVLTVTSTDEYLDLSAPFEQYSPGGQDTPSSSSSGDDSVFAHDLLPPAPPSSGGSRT
human FGFR-1, sequence (P11362 22-822 limits assumed): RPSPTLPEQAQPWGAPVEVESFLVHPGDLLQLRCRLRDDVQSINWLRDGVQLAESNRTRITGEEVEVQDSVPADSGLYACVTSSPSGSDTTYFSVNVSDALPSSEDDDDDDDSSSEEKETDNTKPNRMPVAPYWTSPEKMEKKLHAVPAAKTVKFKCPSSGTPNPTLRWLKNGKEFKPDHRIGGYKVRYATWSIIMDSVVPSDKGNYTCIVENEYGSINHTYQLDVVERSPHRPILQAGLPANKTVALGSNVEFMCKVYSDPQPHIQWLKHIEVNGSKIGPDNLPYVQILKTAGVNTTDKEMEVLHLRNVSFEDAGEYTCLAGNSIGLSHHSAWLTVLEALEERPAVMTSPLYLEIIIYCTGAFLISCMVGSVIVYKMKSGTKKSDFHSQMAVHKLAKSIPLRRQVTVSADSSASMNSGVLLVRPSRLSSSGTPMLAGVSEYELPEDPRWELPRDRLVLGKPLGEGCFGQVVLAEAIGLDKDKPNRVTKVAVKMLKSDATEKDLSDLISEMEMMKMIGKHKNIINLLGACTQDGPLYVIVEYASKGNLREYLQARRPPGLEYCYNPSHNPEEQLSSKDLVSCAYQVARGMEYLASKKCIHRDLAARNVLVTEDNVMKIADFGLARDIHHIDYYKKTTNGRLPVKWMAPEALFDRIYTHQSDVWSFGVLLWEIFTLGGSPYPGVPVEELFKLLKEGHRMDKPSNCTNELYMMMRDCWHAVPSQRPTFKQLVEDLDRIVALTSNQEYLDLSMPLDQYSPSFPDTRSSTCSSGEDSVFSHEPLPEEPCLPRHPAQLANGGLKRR

`COc1cc(C)cc2cc(-c3c(CNCC(C)O)c(CN4CCOCC4)n4ncnc(N)c34)sc12` (racemic) [Example 53, rac-1-({[4-Amino-5-(7-methoxy-5-methyl-1-benzothiophen-2-yl)-7-(morpholin-4-ylmethyl)pyrrolo[2,1-f][1,2,4]triazin-6-yl]methyl}amino)propan-2-ol]: the results for the IC50 at human FGFR-1 and against human FGFR-3 (setting [1]) were 3.9 nM and 2.5 nM, respectively.

Consider `COc1cc(C)cc2cc(-c3c(CO)c(CN4CCNC(=O)C4)n4ncnc(N)c34)sc12` [Example 13, 4-{[4-Amino-6-(hydroxymethyl)-5-(7-methoxy-5-methyl-1-benzothiophen-2-yl)pyrrolo[2,1-f]-[1,2,4]triazin-7-yl]methyl}piperazin-2-one], for which the results for the IC50 on human FGFR-1 and on human FGFR-3 (setting [1]) were 2.5 nM and 10 nM, respectively.

Take `CCOCc1c(-c2cc3cc(C)cc(OC)c3s2)c2c(N)ncnn2c1CN1CC[C@](C)(N)C1` [Example 15, 7-{[(3S)-3-Amino-3-methylpyrrolidin-1-yl]methyl}-6-(ethoxymethyl)-5-(7-methoxy-5-methyl-1-benzothiophen-2-yl)pyrrolo[2,1-f][1,2,4]triazin-4-amine]: the IC50 at human FGFR-1 and on human FGFR-3 (setting [1]) was 1 nM in each case.

As to `CCOCc1c(-c2cc3cc(C)cc(OC)c3s2)c2c(N)ncnn2c1CN1CCN(C(C)=O)CC1` [Example 20, 1-(4-{[4-Amino-6-(ethoxymethyl)-5-(7-methoxy-5-methyl-1-benzothiophen-2-yl)pyrrolo[2,1-f]-[1,2,4]triazin-7-yl]methyl}piperazin-1-yl)ethanone], the IC50 against human FGFR-1 came to 25 nM; at human FGFR-3 (setting [1]), 26.1 nM.

For `COc1cc(C)cc2cc(-c3c(COCCO)c(CN4CCNC(=O)C4)n4ncnc(N)c34)sc12` [Example 21, 4-({4-Amino-6-[(2-hydroxyethoxy)methyl]-5-(7-methoxy-5-methyl-1-benzothiophen-2-yl)pyrrolo-[2,1-f][1,2,4]triazin-7-yl}methyl)piperazin-2-one formiate], the IC50 came out at 4.2 nM at human FGFR-1 and 13 nM on human FGFR-3 (setting [1]).

On to `COc1cc(C)cc2cc(-c3c(COCC4CC4)c(CN4CCNCC4)n4ncnc(N)c34)sc12` [Example 25, 6-[(Cyclopropylmethoxy)methyl]-5-(7-methoxy-5-methyl-1-benzothiophen-2-yl)-7-(piperazin-1-ylmethyl)pyrrolo[2,1-f][1,2,4]triazin-4-amine bis(formiate)], for which the IC50 against human FGFR-1 is 0.7 nM; against human FGFR-3 (setting [1]) it was 5.2 nM.

As for `COc1cc(C)cc2cc(-c3c(COC4CCC4)c(CN4CCNCC4)n4ncnc(N)c34)sc12` [Example 26, 6-[(Cyclobutyloxy)methyl]-5-(7-methoxy-5-methyl-1-benzothiophen-2-yl)-7-(piperazin-1-ylmethyl)pyrrolo[2,1-f][1,2,4]triazin-4-amine], the results for the IC50 at human FGFR-1 and against human FGFR-3 (setting [1]) were 0.9 nM and 4.9 nM, respectively.

Regarding `COc1cc(C)cc2cc(-c3c(COCC(F)(F)F)c(CN4CCNCC4)n4ncnc(N)c34)sc12` [Example 29, 5-(7-Methoxy-5-methyl-1-benzothiophen-2-yl)-7-(piperazin-1-ylmethyl)-6-[(2,2,2-trifluoroethoxy)methyl]pyrrolo[2,1-f][1,2,4]triazin-4-amine formiate], the figures for the IC50 at human FGFR-1 and against human FGFR-3 (setting [1]) were 1.6 nM and 2.5 nM, respectively.

Regarding `COc1cc(C)cc2cc(-c3c(COCC(N)=O)c(CN4CCNCC4)n4ncnc(N)c34)sc12` [Example 33, 2-{[4-Amino-5-(7-methoxy-5-methyl-1-benzothiophen-2-yl)-7-(piperazin-1-ylmethyl)pyrrolo-[2,1-f][1,2,4]triazin-6-yl]methoxy}acetamide], the IC50 was found to be 1 nM on human FGFR-1 and 7.2 nM at human FGFR-3 (setting [1]).

In the case of `COc1cc(C)cc2cc(-c3c(COCC(N)=O)c(CN4CCN(C(C)=O)CC4)n4ncnc(N)c34)sc12` [Example 34, 2-({7-[(4-Acetylpiperazin-1-yl)methyl]-4-amino-5-(7-methoxy-5-methyl-1-benzothiophen-2-yl)pyrrolo[2,1-f][1,2,4]triazin-6-yl}methoxy)acetamide], the IC50 against human FGFR-1 is 6 nM; against human FGFR-3 (setting [1]), 10.5 nM.

On to `COc1cc(C)cc2cc(-c3c(COc4ccccc4)c(CN4CCNCC4)n4ncnc(N)c34)sc12` [Example 35, 5-(7-Methoxy-5-methyl-1-benzothiophen-2-yl)-6-(phenoxymethyl)-7-(piperazin-1-ylmethyl)pyrrolo[2,1-f][1,2,4]triazin-4-amine bis(formiate)], for which the results for the IC50 at human FGFR-1 and against human FGFR-3 (setting [1]) were 61.3 nM and 65.4 nM, respectively.

On human FGFR-3 (setting [1]), `COc1cc(C)cc2cc(-c3c(CNC4CCC4)c(CN4CCNCC4)n4ncnc(N)c34)sc12` [Example 44, 6-[(Cyclobutylamino)methyl]-5-(7-methoxy-5-methyl-1-benzothiophen-2-yl)-7-(piperazin-1-ylmethyl)pyrrolo[2,1-f][1,2,4]triazin-4-amine trihydrochloride] registered an IC50 of 6.1 nM.

`COc1cc(C)cc2cc(-c3c(CN[C@H]4CCNC4=O)c(CN4CCOCC4)n4ncnc(N)c34)sc12` [Example 51, (3S)-3-({[4-Amino-5-(7-methoxy-5-methyl-1-benzothiophen-2-yl)-7-(morpholin-4-ylmethyl)pyrrolo[2,1-f][1,2,4]triazin-6-yl]methyl}amino)pyrrolidin-2-one]: the IC50 at human FGFR-1 came out at 4.4 nM; against human FGFR-3 (setting [1]), 3.9 nM.

Consider `COc1cc(C)cc2cc(-c3c(CN4CCNC(=O)C4)c(CN4CCOCC4)n4ncnc(N)c34)sc12` [Example 52, 4-{[4-Amino-5-(7-methoxy-5-methyl-1-benzothiophen-2-yl)-7-(morpholin-4-ylmethyl)pyrrolo-[2,1-f][1,2,4]triazin-6-yl]methyl}piperazin-2-one], for which the values for the IC50 on human FGFR-1 and on human FGFR-3 (setting [1]) were 9.7 nM and 7 nM, respectively.

As to `COc1cc(C)cc2cc(-c3c(CNCC(C)(C)O)c(CN4CCOCC4)n4ncnc(N)c34)sc12` [Example 54, 1-({[4-Amino-5-(7-methoxy-5-methyl-1-benzothiophen-2-yl)-7-(morpholin-4-ylmethyl)pyrrolo-[2,1-f][1,2,4]triazin-6-yl]methyl}amino)-2-methylpropan-2-ol], the IC50 against human FGFR-1 was determined as 11.2 nM; against human FGFR-3 (setting [1]), 6.8 nM.

Turning to `COc1cc(C)cc2cc(-c3c(CN[C@@H]4CCNC4=O)c(CN4CCN(C(C)=O)CC4)n4ncnc(N)c34)sc12` [Example 56, (3R)-3-[({7-[(4-Acetylpiperazin-1-yl)methyl]-4-amino-5-(7-methoxy-5-methyl-1-benzothiophen-2-yl)pyrrolo[2,1-f][1,2,4]triazin-6-yl}methyl)amino]pyrrolidin-2-one], the IC50 stood at 2.4 nM at human FGFR-1 and 2 nM against human FGFR-3 (setting [1]).

Turning to `COc1cc(C)cc2cc(-c3c(CNCC(C)(C)O)c(CN4CCN(C(C)=O)CC4)n4ncnc(N)c34)sc12` [Example 57, 1-(4-{[4-Amino-6-{[(2-hydroxy-2-methylpropyl)amino]methyl}-5-(7-methoxy-5-methyl-1-benzothiophen-2-yl)pyrrolo[2,1-f][1,2,4]triazin-7-yl]methyl}piperazin-1-yl)ethanone], the IC50 at human FGFR-1 was 3.2 nM; against human FGFR-3 (setting [1]) it was 1.8 nM.

With `Cc1c(-c2nc(C3CCC3)n3ccnc(N)c23)sc2ccccc12` [Example 210 in WO 2007/061737, reference compound], at human FGFR-3 (setting [2]), 554 nM corresponded to half-maximal inhibition (IC50).

As to `Nc1nccn2c(C3CCC3)nc(-c3cc4cccc(Cl)c4s3)c12` [Example 233 in WO 2007/061737, reference compound], the midpoint of inhibition against human FGFR-3 (setting [2]), the IC50, lay at 10000 nM.

Broadly, the IC50 is the concentration needed to halve the response being measured. Low readings indicate inhibition by little substance, high ones a need for much substance.
